Results taken from the supplement of paper PMC11061612.

Columns and labels:
[1] = test system: HEC-1 (Endometrial Carcinoma); test: Bliss excess, mean over the matrix (fraction); higher = more synergy
Method in brief: (§1)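 Cell lines grown in DMEM/F12 or RPMI with 10% FBS were plated in 1536-well plates and held 24 hours at 37°C, 5% CO2 before 72 hours of exposure to two-drug dose matrices, with DMSO typically at 0.2%. CellTiter-Glo 2.0 luminescence gave viability, which was converted to inhibition. Vehicle wells were set to 0 and blank wells to 1. Combination Emax is the second-highest inhibition in the matrix, and Bliss excess is the observed combination effect minus the expected EA + EB − EA·EB, where EA and EB are the single-agent effects.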

[2] = test system: NCI-H23 (Lung Adenocarcinoma); test: as above
Method in brief: as §1

[3] = test system: COLO-680N (Esophageal Squamous Cell Carcinoma); test: as above
Method in brief: as §1

[4] = test system: NCI-H446 (Small Cell Lung Carcinoma); test: combination Emax (second highest fraction inhibited in the dose matrix, 72 h); higher = more inhibition; extreme values may be limits of the assay
Method in brief: as §1

[5] = test system: L-1236 (Hodgkin's Lymphoma); test: as above
Method in brief: as §1

[6] = test system: RERF-GC-1B (Gastric Carcinoma); test: as above
Method in brief: as §1

[7] = test system: A2058 (Melanoma); test: as above
Method in brief: as §1

[8] = test system: HSC-39 (Gastric Carcinoma); test: as above
Method in brief: as §1

[9] = test system: 23132-87 (Gastric Carcinoma); test: as above
Method in brief: as §1

[10] = test system: SK-PN-DW (Other Solid Carcinomas); test: as above
Method in brief: as §1

[11] = test system: MKN45 (Gastric Carcinoma); test: as above
Method in brief: as §1

[12] = test system: LN-229 (Glioblastoma); test: as above
Method in brief: as §1

[13] = test system: PANC-03-27 (Pancreatic Carcinoma); test: as above
Method in brief: as §1

[14] = test system: VAL (B-Cell Non-Hodgkin's Lymphoma); test: as above
Method in brief: as §1

[15] = test system: RERF-LC-Sq1 (Squamous Cell Lung Carcinoma); test: as above
Method in brief: as §1

[16] = test system: OVMIU (Ovarian Carcinoma); test: as above
Method in brief: as §1

[17] = test system: REH (B-Lymphoblastic Leukemia); test: as above
Method in brief: as §1

[18] = test system: LXF-289 (Lung Adenocarcinoma); test: as above
Method in brief: as §1

[19] = test system: SHP-77 (Small Cell Lung Carcinoma); test: as above
Method in brief: as §1

[20] = test system: HCT-15 (Colorectal Carcinoma); test: as above
Method in brief: as §1
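For Bliss excess, mean over the matrix in this document: after 72 h of two-drug dosing.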

| SMILES | Bliss excess [1] | Bliss excess [2] | Bliss excess [3] | combination Emax [4] | combination Emax [5] | combination Emax [6] | combination Emax [7] | combination Emax [8] | combination Emax [9] | combination Emax [10] | combination Emax [11] | combination Emax [12] | combination Emax [13] | combination Emax [14] | combination Emax [15] | combination Emax [16] | combination Emax [17] | combination Emax [18] | combination Emax [19] | combination Emax [20] |
| --- | --- | --- | --- | --- | --- | --- | --- | --- | --- | --- | --- | --- | --- | --- | --- | --- | --- | --- | --- | --- |
| COc1nnc2ccc(N3CCC(c4ccc(OCCN5CCN(C)C(=O)[C@H]5C)cc4)CC3)nn12 [AZD5153] + C[C@@H]1COCCN1C2=NC(=NC(=C2)C3(CC3)[S@](=N)(=O)C)C4=C5C=CNC5=NC=C4 [AZD6738] (first compound max 1 µM, 7x7, partner max 10 µM) | 0.0625 | -0.0105 | 0.0046 | 0.951 | 0.998 | 0.796 | 0.908 | 1 | 0.594 | 0.868 | 0.782 | 0.575 | 0.489 | 0.835 | 0.801 | 0.795 | 0.96 | 0.862 | 0.821 | 0.858 |
| COc1nnc2ccc(N3CCC(c4ccc(OCCN5CCN(C)C(=O)[C@H]5C)cc4)CC3)nn12 [AZD5153] + Cc1c2c(nn1C)CSCc1cc(n(C)n1)CSc1cc(c3ccccc3c1)OCCCc1c(C(=O)O)n(C)c3c-2c(Cl)ccc13 [AZD5991] (first compound max 1 µM, 7x7, partner max 1 µM) | 0.0132 | -0.086 | -0.0205 | 0.998 | 1 | 0.985 | 0.975 | 1 | 0.87 | 0.985 | 0.497 | 0.629 | 0.252 | 0.854 | 0.602 | 0.813 | 0.965 | 0.903 | 0.544 | 0.75 |
| COc1nnc2ccc(N3CCC(c4ccc(OCCN5CCN(C)C(=O)[C@H]5C)cc4)CC3)nn12 [AZD5153] + Cn1cnc2c(F)c(Nc3ccc(Br)cc3Cl)c(C(=O)NOCCO)cc21 [Selumetinib] (first compound max 1 µM, 7x7, partner max 10 µM) | -0.0115 | -0.0027 | 0.0131 | 0.91 | 1 | 0.753 | 0.842 | 0.76 | 0.2 | 0.559 | 0.744 | 0.511 | 0.398 | 0.738 | 0.79 | 0.737 | 0.469 | 0.646 | 0.424 | 0.819 |
| Cc1c2c(nn1C)CSCc1cc(n(C)n1)CSc1cc(c3ccccc3c1)OCCCc1c(C(=O)O)n(C)c3c-2c(Cl)ccc13 [AZD5991] + C1CN(CCC1(C(=O)N[C@@H](CCO)C2=CC=C(C=C2)Cl)N)C3=NC=NC4=C3C=CN4 [Capivasertib] (first compound max 1 µM, 7x7, partner max 3 µM) | -0.025 | -0.0276 | -0.0223 | 0.838 | 0.42 | 0.989 | 0.908 | 1 | 0.934 | 0.95 | 0.467 | 0.42 | 0.167 | 0.811 | 0.757 | 0.353 | 0.849 | 0.369 | 0.263 | 0.209 |
| Cc1c2c(nn1C)CSCc1cc(n(C)n1)CSc1cc(c3ccccc3c1)OCCCc1c(C(=O)O)n(C)c3c-2c(Cl)ccc13 [AZD5991] + C=CCn1c(=O)c2cnc(Nc3ccc(N4CCN(C)CC4)cc3)nc2n1-c1cccc(C(C)(C)O)n1 [AZD1775] (first compound max 1 µM, partner max 1 µM) | 0.0192 | -0.0174 | 0.0254 | 0.941 | 0.824 | 1 | 0.892 | 1 | 0.96 | 0.962 | 0.826 | 0.855 | 0.926 | 0.887 | 0.785 | 0.635 | 0.877 | 0.813 | 0.461 | 0.557 |
| Cc1c2c(nn1C)CSCc1cc(n(C)n1)CSc1cc(c3ccccc3c1)OCCCc1c(C(=O)O)n(C)c3c-2c(Cl)ccc13 [AZD5991] + CC1(C)CCC(CN2CCN(c3ccc(C(=O)NS(=O)(=O)c4ccc(NCC5CCOCC5)c([N+](=O)[O-])c4)c(Oc4cnc5[nH]ccc5c4)c3)CC2)=C(c2ccc(Cl)cc2)C1 [Venetoclax] (first compound max 1 µM, 7x7, partner max 1 µM) | -0.0543 | -0.0077 | -0.0255 | 0.86 | 0.764 | 1 | 0.914 | 1 | 0.903 | 0.929 | 0.168 | 0.503 | 0.188 | 1 | 0.282 | 0.318 | 1 | 0.296 | 0.753 | 0.182 |
| Cc1c2c(nn1C)CSCc1cc(n(C)n1)CSc1cc(c3ccccc3c1)OCCCc1c(C(=O)O)n(C)c3c-2c(Cl)ccc13 [AZD5991] + CCN(CCO)CCCOc1ccc2c(Nc3cc(CC(=O)Nc4cccc(F)c4)[nH]n3)ncnc2c1 [AZD2811] (first compound max 1 µM, 7x7, partner max 1 µM) | 0.0547 | 0.0222 | 0.007 | 0.926 | 0.491 | 0.998 | 0.919 | 1 | 0.924 | 0.985 | 0.408 | 0.522 | 0.517 | 0.909 | 0.622 | 0.283 | 0.931 | 0.864 | 0.289 | 0.263 |
| Cc1c2c(nn1C)CSCc1cc(n(C)n1)CSc1cc(c3ccccc3c1)OCCCc1c(C(=O)O)n(C)c3c-2c(Cl)ccc13 [AZD5991] + CN(C)CCCOc1ccc(-c2ccc3ncc4c(c3c2)n(C2CCOCC2)c(=O)n4C)cn1 [AZD0156] (first compound max 1 µM, 7x7, partner max 1 µM) | -0.0025 | -0.0201 | 0.0049 | 0.67 | 0.331 | 0.978 | 0.465 | 1 | 0.934 | 0.835 | 0.356 | 0.483 | 0.254 | 0.657 | 0.364 | 0.359 | 0.694 | 0.427 | 0.284 | 0.197 |
| Cc1c2c(nn1C)CSCc1cc(n(C)n1)CSc1cc(c3ccccc3c1)OCCCc1c(C(=O)O)n(C)c3c-2c(Cl)ccc13 [AZD5991] + C[C@@H]1COCCN1C2=NC(=NC(=C2)C3(CC3)[S@](=N)(=O)C)C4=C5C=CNC5=NC=C4 [AZD6738] (first compound max 1 µM, 7x7, partner max 10 µM) | 0.0258 | -0.0037 | 0.0186 | 0.948 | 0.74 | 1 | 0.925 | 1 | 0.979 | 0.947 | 0.807 | 0.777 | 0.819 | 0.933 | 0.853 | 0.483 | 0.945 | 0.776 | 0.594 | 0.733 |
| Cc1c2c(nn1C)CSCc1cc(n(C)n1)CSc1cc(c3ccccc3c1)OCCCc1c(C(=O)O)n(C)c3c-2c(Cl)ccc13 [AZD5991] + C[C@@H](Nc1cc(F)cc(F)c1)c1cc(C(=O)N(C)C)cc2c(=O)cc(N3CCOCC3)oc12 [AZD8186] (first compound max 1 µM, 7x7, partner max 3 µM) | -0.0143 | -0.0085 | 0.0001 | 0.882 | 0.291 | 0.98 | 0.821 | 1 | 0.867 | 0.911 | 0.39 | 0.546 | 0.354 | 0.744 | 0.228 | 0.447 | 0.776 | 0.47 | 0.289 | 0.194 |
| Cc1c2c(nn1C)CSCc1cc(n(C)n1)CSc1cc(c3ccccc3c1)OCCCc1c(C(=O)O)n(C)c3c-2c(Cl)ccc13 [AZD5991] + Cc1cc2ncnn2cc1Nc1ncc2c(n1)n(C1CCOCC1)c(=O)n2C [AZD7648] (first compound max 1 µM, 7x7, partner max 10 µM) | -0.0375 | -0.0431 | -0.0177 | 0.648 | 0.426 | 0.987 | 0.452 | 1 | 0.887 | 0.881 | 0.504 | 0.389 | 0.261 | 0.744 | 0.37 | 0.547 | 0.8 | 0.369 | 0.263 | 0.251 |
| Cc1c2c(nn1C)CSCc1cc(n(C)n1)CSc1cc(c3ccccc3c1)OCCCc1c(C(=O)O)n(C)c3c-2c(Cl)ccc13 [AZD5991] + Cn1cnc2c(F)c(Nc3ccc(Br)cc3Cl)c(C(=O)NOCCO)cc21 [Selumetinib] (first compound max 1 µM, 7x7, partner max 3 µM) | -0.0318 | 0.0495 | -0.0091 | 0.563 | 0.297 | 0.998 | 0.991 | 1 | 0.903 | 0.887 | 0.508 | 0.428 | 0.597 | 0.724 | 0.479 | 0.383 | 0.732 | 0.398 | 0.598 | 0.301 |
| C[C@@H]1COCCN1c1cc(C2([S@](C)(=N)=O)CC2)nc(-c2ccnc3[nH]ccc23)n1 [AZD6738] + O=C(c1cc(Cc2n[nH]c(=O)c3ccccc23)ccc1F)N1CCN(C(=O)C2CC2)CC1 [Olaparib] (first compound max 10 µM, 7x7, partner max 10 µM) | -0.0041 | 0.0049 | 0.0109 | 0.811 | 0.583 | 0.442 | 0.205 | 1 | 0.768 | 0.947 | 0.763 | 0.539 | 0.829 | 0.909 | 0.75 | 0.429 | 0.917 | 0.516 | 0.754 | 0.832 |
